PubChem BioAssay (NCI)
Several values for one entry are separate records, joined by “and”; a condition that tells them apart may be missing. Equal values may be shown once.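 Cells were grown in 96-well plates and exposed to each compound for 48 hours at five concentrations; endpoints were interpolated linearly between bracketing concentrations, or set to the highest concentration if not reached. Abbreviation: GI50, concentration required for 50% inhibition of growth. TGI denotes the concentration required for complete inhibition of growth.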

What follows are compounds tested on MDA-MB-468 breast (assay: growth of human tumour cells (NCI), 48 h).
Compound `Oc1c(CN2CCCCC2)ccc2cccnc12` has a GI50 of 4890 nM and a TGI of 22400 nM. `O=c1cc(-c2ccccc2)oc2c(O)c(O)ccc12` showed a GI50 of 14300 nM and a TGI of 79200 nM. `COC1=CC(c2ccc[nH]2)=N/C1=C\c1[nH]c(C)c(CC(=O)NCc2ccccc2)c1C` gave a GI50 of 1170 nM and a TGI of 2630 nM. For `COc1cc2nc(Cl)nc(Nc3cccc(C4=Nc5c(N)nc(N)nc5NC(c5ccc(F)cc5)C4)c3)c2cc1OC` (stereo not drawn), the GI50 was 1790 nM and the TGI was 3390 nM. In the case of `CCCCCCCC(=O)Nc1nc2[nH]c(CN3CCN(Cc4cccc(I)c4)CC3)c(CN3CCN(Cc4cccc(I)c4)CC3)c2c(=O)[nH]1`, the GI50 is reported as 858 nM and the TGI is reported as 1640 nM. Work on `C=C[C@@H]1CCC/C=C/[C@@H]2C[C@H](O)C[C@H]2[C@H](O)/C=C/C(=O)O1` yielded a GI50 of 216 nM and a TGI of 611 nM. In the case of `Cn1cc(-c2ncnc3ccc(-c4cnc(Cl)c(NS(C)(=O)=O)c4)cc23)c2ccccc21`, the GI50 is reported as 183 nM and the TGI is reported as 2350 nM. Compound `COC(=O)[C@@H](C)C[C@H](Cc1ccc(F)cc1)NC(=O)c1csc([C@@H](C[C@H](C(C)C)N(C)C(=O)[C@@H](NC(=O)[C@H]2CCCCN2C)C2CC2)OC(C)=O)n1` has a GI50 of 138 nM and a TGI greater than 25000 nM. `COc1nc2c(c(=O)n1C)CN(c1ccccc1)C(=O)CN2C` was tested, and the GI50 was 13300 nM and the TGI was 80900 nM. `O=C(N/N=C\c1ccc(N(CCCl)CCCl)cc1)c1cccnc1` showed a GI50 of 11000 nM and a TGI of 59600 nM. With `C[C@]1(c2nc3c(C(N)=O)cccc3[nH]2)CCCN1` the GI50 was 29700 nM and the TGI was greater than 100000 nM. For `O=c1oc2ccc(F)cc2c(=O)n1-c1ccc(I)cc1F`, the GI50 was 375 nM and the TGI was 2450 nM. `O=C(N/N=C/c1ccc([N+](=O)[O-])cc1)c1ccccc1Nc1ccnc(C(F)(F)F)c1` gave a GI50 of 15800 nM and a TGI of 41300 nM. With `O=C(Nc1ccc(Cl)cc1)c1cc(NCc2cc(O)ccc2O)ccc1O` the GI50 was 4810 nM and the TGI was 26600 nM. `Nc1ccccc1NC(=O)c1ccc(NC(=O)C/C=C/c2cccnc2)cc1` showed a GI50 of 915 nM and a TGI of 2660 nM. For `CC1(C)N=C(N)N=C(N)N1c1cccc(CCCCc2ccc(Cl)c(S(=O)(=O)F)c2)c1`, the GI50 was 10600 nM and the TGI was 24500 nM. Work on `CC1(C)CC[C@]2(C(=O)NCCNCCN)CC[C@]3(C)C(=CC[C@@H]4[C@@]5(C)CCC(=O)C(C)(C)[C@@H]5CC[C@]43C)[C@@H]2C1` yielded a GI50 of 1710 nM and a TGI of 3290 nM. Work on `C#Cc1cccc(Nc2nc(C)nc3cc(NC(=O)CCl)ccc23)c1` yielded a GI50 of 770 nM and a TGI of 2180 nM. Work on `CCCCCCCCCCCCCCCCCC1=NC(C)(C)CN1C(C)(C)CO` yielded a GI50 of 1210 nM and a TGI of 2560 nM. `COc1cc(-c2n/c(=C\c3c(O)[nH]c4ccccc34)cc3c2=Nc2ccccc2-3)ccc1F` showed a GI50 of 2610 nM and a TGI of 16700 nM. Work on `N#Cc1c(N)c(C(=O)c2ccc3c(c2)OCCO3)n2c1CCCC2` yielded a GI50 of 2470 nM and a TGI of 23700 nM. Compound `NC(=O)c1ccc(I)c([N+](=O)[O-])c1` has a GI50 of 24400 nM and a TGI greater than 65600 nM. For `CCOc1ccc(Nc2ccnc3cc(Cl)ccc23)cc1`, the GI50 was 43100 nM and the TGI was greater than 100000 nM. `O=C1NN(C(=O)c2ccccc2)C(c2ccc(Cl)c(Cl)c2)=C/C1=C\c1ccccc1[N+](=O)[O-]` showed a GI50 of 6140 nM and a TGI greater than 6750 nM. For `N[C@@H](Cc1c[nH]c2ccccc12)C(=O)NC1CCN(Cc2c[nH]c3ccc(Cl)cc23)CC1`, the GI50 was 2430 nM and the TGI was 5740 nM. `Cc1cccc2c(=O)c3c(sc12)c(NCCCN)nc1ccccc13` gave a GI50 of 1430 nM and a TGI of 2940 nM. `COc1ccc2c(c1)C(=O)/C(=C/c1ccc(O)cc1)O2` showed a GI50 of 2400 nM and a TGI of 12400 nM. `CO[C@H]1/C=C/O[C@@]2(C)Oc3c(C)c(O)c4c(O)c(c(/C=N/N5C(C)CN(Cc6ccc(C#N)cc6)CC5C)c(O)c4c3C2=O)NC(=O)/C(C)=C\C=C\[C@H](C)[C@H](O)[C@@H](C)[C@@H](O)[C@@H](C)[C@H](OC(C)=O)[C@@H]1C` (stereo partly drawn) gave a GI50 of 11000 nM and a TGI of 39900 nM. For `CCCCNC(=O)Oc1ccc(/C(=C(\C)c2ccc(OC)cc2)c2ccc(OCCN3CCCCC3)cc2)cc1`, the GI50 was 2080 nM and the TGI was 5070 nM. In the case of `COC(=O)[C@@H](C)C[C@H](Cc1ccccc1)NC(=O)c1csc([C@@H](C[C@H](C(C)C)N(C)C(=O)[C@@H](NC(=O)[C@H]2CCCCN2C)c2ccc(F)cc2)OC(C)=O)n1`, the GI50 is reported as 4.17 nM and 2.5 nM and 16.3 nM and the TGI is reported as 25000 nM and > 100000 nM. `NC(CCl)=NCC12CC3CC(CC(C3)C1)C2` was tested, and the GI50 was 827 nM and the TGI was 6950 nM. With `COc1ccc2cc(C(=O)N3CCC([C@@H](C)C(=O)NCc4ccc5c(c4)OCO5)CC3)[nH]c2c1` the GI50 was 86200 nM and the TGI was greater than 100000 nM. Work on `COc1ccc(-c2c(NC(=O)Nc3ccc(Cl)c(C(F)(F)F)c3)cnn2-c2ccc(S(N)(=O)=O)cc2)cc1` yielded a GI50 of 2050 nM and a TGI of 6880 nM. `N#Cc1nc(-c2ccccc2)oc1S(=O)(=O)N1CCN(CCc2ccccn2)CC1` was tested, and the GI50 was 1600 nM and the TGI was 3450 nM. Compound `COc1cc(OCCCN2CCCC2)ccc1Nc1ncc(Cl)c(Nc2ccccc2P(C)(C)=O)n1` has a GI50 of 1220 nM and a TGI of 3640 nM. In the case of `FC(F)(F)c1cccc(Oc2ccc(Nc3ncnc4ccc(OCCCN5CCOCC5)cc34)cc2Cl)c1`, the GI50 is reported as 480 nM and the TGI is reported as 2850 nM. Compound `Cc1cc(C)c([I+]c2c(C)cc(C)cc2C)c(C)c1` has a GI50 of 134 nM and a TGI of 672 nM. `CC[C@H](C)[C@H](NC(=O)c1ncccn1)C(=O)N(C)[C@H](C[C@@H](OC(C)=O)c1nc(C(=O)N[C@@H](Cc2ccccc2)C[C@H](C)C(=O)OC)cs1)C(C)C` was tested, and the GI50 was 757 nM and the TGI was greater than 25000 nM. For `COc1ccc(-c2oc3ncnc(N)c3c2-c2ccc(NC(=O)Nc3cc(C(F)(F)F)ccc3F)cc2)cc1`, the GI50 was 903 nM and the TGI was 2310 nM.
